Columns and labels:
Axl (h) = target: T1, Axl (h) (Homo sapiens, UniProt P30530); assay: Enzymatic activity assay, Axl (h), [γ-33P]-ATP filter assay; format: biochemical; details: 10 μM ATP, 40 min room temperature; read-out: Inhibitory activity IC50 Axl(h)
T1 sequence (P30530 26-894): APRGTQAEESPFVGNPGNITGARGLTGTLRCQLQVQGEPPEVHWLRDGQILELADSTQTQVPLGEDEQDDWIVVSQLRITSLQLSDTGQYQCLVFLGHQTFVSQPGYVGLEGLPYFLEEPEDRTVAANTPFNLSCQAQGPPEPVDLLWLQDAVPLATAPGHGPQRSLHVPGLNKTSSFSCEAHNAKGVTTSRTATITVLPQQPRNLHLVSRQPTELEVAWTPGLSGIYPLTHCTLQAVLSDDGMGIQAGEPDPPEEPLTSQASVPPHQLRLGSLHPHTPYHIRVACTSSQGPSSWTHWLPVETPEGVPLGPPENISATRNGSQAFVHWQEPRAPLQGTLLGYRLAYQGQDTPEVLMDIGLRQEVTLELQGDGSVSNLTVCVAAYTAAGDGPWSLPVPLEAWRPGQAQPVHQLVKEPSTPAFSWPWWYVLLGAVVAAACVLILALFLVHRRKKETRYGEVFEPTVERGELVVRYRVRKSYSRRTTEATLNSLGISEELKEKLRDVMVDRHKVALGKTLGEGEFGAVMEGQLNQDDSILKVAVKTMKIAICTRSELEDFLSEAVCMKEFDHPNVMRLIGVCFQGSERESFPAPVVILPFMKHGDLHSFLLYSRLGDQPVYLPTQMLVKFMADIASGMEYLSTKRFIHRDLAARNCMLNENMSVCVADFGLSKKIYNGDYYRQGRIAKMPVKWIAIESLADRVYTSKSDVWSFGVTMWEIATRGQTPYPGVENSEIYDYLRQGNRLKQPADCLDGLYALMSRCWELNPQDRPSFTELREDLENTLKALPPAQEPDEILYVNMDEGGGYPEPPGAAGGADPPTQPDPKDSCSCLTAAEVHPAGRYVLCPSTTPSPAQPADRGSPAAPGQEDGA
Protocol: (§1) Compounds were each dissolved in 100% DMSO to prepare stock solutions with a maximum concentration of 500 μM.
(§2) Compound working solutions (50×) were prepared by diluting a compound stock solution to a final concentration of 500, 150, 50, 15, 5, 1.5, 0.5, 0.15 and 0.05 μM.
An enzyme solution with a final concentration of 1.7 nM was prepared by dissolving Axl (h) enzyme in a mixture of 8 mM MOPS (pH 7.0), 0.2 mM EDTA and 250 μM KKSRGDYMTMQIG. A Mg/ATP mixture of 10 mM magnesium acetate and 10 μM [γ-^33P]-ATP was used to activate the enzymatic reaction.
(§3) A compound working solution was added to a 384-well plate, with final concentrations of 10,000, 3,000, 1,000, 300, 100, 30, 10, 3 and 1 nM, and then different enzymatic reaction solutions prepared according to the above conditions were added. The reaction solutions were incubated at room temperature for 40 min, and then 0.5% phosphoric acid solutions were added to terminate the reaction. 10 μL of the reaction solution was added dropwise to P30 filter paper, washed 4 times with a 0.425% phosphoric acid solution and once with methanol, and then placed in a scintillation counter for detection. Gray analysis was performed on the results with Image J software, and IC50 values were calculated with GraphPad 5.0 software.

Mer (h) = target: T2, Mer (h) (Homo sapiens, UniProt Q12866); assay: Enzymatic activity assay, Mer (h), [γ-33P]-ATP filter assay; format: biochemical; details: 10 μM ATP, 40 min room temperature; read-out: Inhibitory activity IC50 Mer(h)
T2 sequence (Q12866 21-999): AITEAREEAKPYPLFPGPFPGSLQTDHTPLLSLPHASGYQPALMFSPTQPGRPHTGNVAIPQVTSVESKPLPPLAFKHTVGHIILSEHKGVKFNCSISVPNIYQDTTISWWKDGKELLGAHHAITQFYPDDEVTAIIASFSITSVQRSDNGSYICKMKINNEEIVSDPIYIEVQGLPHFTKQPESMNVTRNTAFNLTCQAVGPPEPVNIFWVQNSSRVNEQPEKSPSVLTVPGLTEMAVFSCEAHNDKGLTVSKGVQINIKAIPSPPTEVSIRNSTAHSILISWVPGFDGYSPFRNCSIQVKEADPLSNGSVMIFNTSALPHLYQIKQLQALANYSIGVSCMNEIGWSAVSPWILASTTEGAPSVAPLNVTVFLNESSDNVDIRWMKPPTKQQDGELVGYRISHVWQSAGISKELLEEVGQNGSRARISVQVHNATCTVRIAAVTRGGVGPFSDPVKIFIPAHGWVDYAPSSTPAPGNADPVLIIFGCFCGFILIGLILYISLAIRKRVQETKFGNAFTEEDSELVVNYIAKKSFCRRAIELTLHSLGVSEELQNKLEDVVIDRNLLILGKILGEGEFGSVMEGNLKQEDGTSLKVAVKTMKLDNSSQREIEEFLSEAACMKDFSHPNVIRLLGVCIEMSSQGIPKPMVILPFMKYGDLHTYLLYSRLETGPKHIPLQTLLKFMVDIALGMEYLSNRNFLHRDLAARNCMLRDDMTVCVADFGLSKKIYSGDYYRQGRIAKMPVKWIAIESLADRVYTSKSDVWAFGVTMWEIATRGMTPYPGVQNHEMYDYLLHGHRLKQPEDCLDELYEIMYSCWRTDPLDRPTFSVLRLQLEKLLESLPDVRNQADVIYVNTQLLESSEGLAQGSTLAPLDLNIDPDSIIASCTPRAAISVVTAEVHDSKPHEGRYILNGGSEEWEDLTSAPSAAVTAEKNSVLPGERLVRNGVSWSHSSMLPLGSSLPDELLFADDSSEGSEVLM
Protocol: as §1, §2
An enzyme solution with a final concentration of 3.1 nM was prepared by dissolving Mer (h) enzyme in a mixture of 8 mM MOPS (pH 7.0), 0.2 mM EDTA, 30 mM NaCl and 250 μM GGMEDIYFEFMGGKKK. A Mg/ATP mixture of 10 mM magnesium acetate and 10 μM [γ-^33P]-ATP was used to activate the enzymatic reaction.
as §3

Row | SMILES | IC50 (Axl (h)) | IC50 (Mer (h))
1 | COc1cc2nccc(Oc3ccc(NC(=O)c4cn(CC5CCOCC5)cc(-c5ccc(C)cc5)c4=O)nc3)c2cc1OC [Compound 1, N-(5-((6,7-dimethoxyquinolin-4-yl)oxy)pyridin-2-yl)-4-oxo-1-((tetrahydro-2H-pyran-4-yl)methyl)-5-(p-tolyl)-1,4-dihydropyridin-3-carboxamide] | 5 nM | 2 nM
2 | COc1cc2nccc(Oc3ccc(NC(=O)c4nn(CC5CCOCC5)cc(-c5ccc(C)cc5)c4=O)nc3)c2cc1OC [Compound 2, N-(5-((6,7-dimethoxyquinolin-4-yl)oxy)pyridin-2-yl)-4-oxo-1-((tetrahydro-2H-pyran-4-yl)methyl)-5-(p-tolyl)-1,4-dihydropyridazin-3-carboxamide] | 7 nM | < 1 nM
3 | COc1cc2nccc(Oc3cnc(NC(=O)c4cn(CC5CCOCC5)cc(-c5ccc(C)cc5)c4=O)nc3)c2cc1OC [Compound 4, N-(5-((6,7-dimethoxyquinolin-4-yl)oxy)pyrimidin-2-yl)-4-oxo-1-((tetrahydro-2H-pyran-4-yl)methyl)-5-(p-tolyl)-1,4-dihydropyridin-3-carboxamide] | 9 nM | 5 nM
4 | COc1cc2nccc(Oc3ccc(NC(=O)c4cn(CC5CCS(=O)(=O)CC5)cc(-c5ccc(C)cc5)c4=O)nc3)c2cc1OC [Compound 7, N-(5-((6,7-dimethoxyquinolin-4-yl)oxy)pyridin-2-yl)-1-((1,1-dioxotetrahydro-2H-thiopyran-4-yl)methyl)-4-oxo-5-(p-tolyl)-1,4-dihydropyridin-3-carboxamide] | 20 nM | 50 nM
5 | COc1cc2nccc(Oc3ccc(NC(=O)c4cn(CC5CC[S+]([O-])CC5)cc(-c5ccc(C)cc5)c4=O)nc3)c2cc1OC (stereo not drawn) [Compound 8, N-(5-((6,7-dimethoxyquinolin-4-yl)oxy)pyridin-2-yl)-1-((1-oxotetrahydro-2H-thiopyran-4-yl)methyl)-4-oxo-5-(p-tolyl)-1,4-dihydropyridin-3-carboxamide] | 6 nM | 73 nM
6 | COc1cc2nccc(Oc3ccc(NC(=O)c4cn(CC5CCSCC5)cc(-c5ccc(C)cc5)c4=O)nc3)c2cc1OC [Compound 9, N-(5-((6,7-dimethoxyquinolin-4-yl)oxy)pyridin-2-yl)-4-oxo-1-((tetrahydro-2H-thiopyran-4-yl)methyl)-5-(p-tolyl)-1,4-dihydropyridin-3-carboxamide] | 35 nM | 5 nM
7 | COc1cc2nccc(Oc3ccc(NC(=O)c4cc(-c5ccc(C)cc5)cn(CC5CCOCC5)c4=O)nc3)c2cc1OC [Compound 13, N-(5-((6,7-dimethoxyquinolin-4-yl)oxy)pyridin 2yl)-2-oxo-1-((tetrahydro-2H-pyran-4-yl)methyl)-5-(p-tolyl)-1,2-dihydropyridin-3-carboxamide] | 23 nM | 8 nM
8 | COc1cc2nccc(Oc3cnc(NC(=O)c4nn(CC5CCOCC5)cc(-c5ccc(C)cc5)c4=O)nc3)c2cc1OC [Compound 16, N-(5-((6,7-dimethoxyquinolin-4-yl)oxy)pyrimidin-2-yl)-4-oxo-1-((tetrahydro-2H-pyran-4-yl)methyl)-5-(p-tolyl)-1,4-dihydropyridazin-3-carboxamide] | 4 nM | 3 nM
9 | COc1cc2nccc(Oc3ccc(NC(=O)c4nn(C5CCOCC5)cc(-c5ccc(C)cc5)c4=O)nc3)c2cc1OC [Compound 17, N-(5-((6,7-dimethoxyquinolin-4-yl)oxy)pyridin-2-yl)-4-oxo-1-(tetrahydro-2H-pyran-4-yl)-5-(p-tolyl)-1,4-dihydropyridazin-3-carboxamide] | 3 nM | 1 nM
10 | COc1cc2nccc(Oc3cnc(NC(=O)c4nn(C5CCOCC5)cc(-c5ccc(C)cc5)c4=O)nc3)c2cc1OC [Compound 18, N-(5-((6,7-dimethoxyquinolin-4-yl)oxy)pyrimidin-2-yl)-4-oxo-1-(tetrahydro-2H-pyran-4-yl)-5-(p-tolyl)-1,4-dihydropyridazin-3-carboxamide] | 7 nM | 5 nM
11 | COc1cc2nccc(Oc3ccc(NC(=O)c4cn(C5CCOCC5)cc(-c5ccc(C)cc5)c4=O)nc3)c2cc1OC [Compound 19, N-(5-((6,7-dimethoxyquinolin-4-yl)oxy)pyridin-2-yl)-4-oxo-1-(tetrahydro-2H-pyran-4-yl)-5-(p-tolyl)-1,4-dihydropyridin-3-carboxamide] | 12 nM | 4 nM
12 | COc1cc2nccc(Oc3cnc(NC(=O)c4cn(C5CCOCC5)cc(-c5ccc(C)cc5)c4=O)nc3)c2cc1OC [Compound 20, N-(5-((6,7-dimethoxyquinolin-4-yl)oxy)pyrimidin-2-yl)-4-oxo-1-(tetrahydro-2H-pyran-4-yl)-5-(p-tolyl)-1,4-dihydropyridin-3-carboxamide] | 4 nM | 14 nM
13 | COc1cc2nccc(Oc3ccc(NC(=O)c4cn(CC5CCOCC5)cc(-c5ccc(C)cc5)c4=O)nn3)c2cc1OC [Compound 24, N-(6-((6,7-dimethoxyquinolin-4-yl)oxy)pyridazin-3-yl)-4-oxo-1-((tetrahydro-2H-pyran-4-yl)methyl)-5-(p-tolyl)-1,4-dihydropyridin-3-carboxamide] | 9 nM | 34 nM
14 | COc1cc2nccc(Oc3ccc(NC(=O)c4cn(CC5CCOCC5)c5ccccc5c4=O)nc3)c2cc1OC [Compound 25, N-(5-((6,7-dimethoxyquinolin-4-yl)oxy)pyridin-2-yl)-4-oxo-1-((tetrahydro-2H-pyran-4-yl)methyl)-1,4-dihydroquinolin-3-carboxamide] | 11 nM | 15 nM
15 | COc1cc2nccc(Oc3ccc(NC(=O)c4cc(CC5CCOCC5)cn(-c5ccc(C)cc5)c4=O)nc3)c2cc1OC [Compound 26, N-(5-((6,7-dimethoxyquinolin-4-yl)oxy)pyridin-2-yl)-oxo-5-((tetrahydro-2H-pyran-4-yl)methyl)-1-(p-tolyl)-1,2-dihydropyridin-3-carboxamide] | 20 nM | 8 nM

Reference: patent US20210177828A1, “TAM FAMILY KINASE /AND CSF1R KINASE INHIBITOR AND USE THEREOF” (Nanjing Transthera Biosciences Co., Ltd., priority 2018, published 2021)
